# US12686678B2, “Crystal form of Lanifibranor, preparation method therefor, and use thereof” (INVENTIVA, priority 2020, dated 2026)
# Key:
# Format in all cases: physicochemical
# [1] = Adhesiveness (material sticking to punch, ENERPAC manual tablet press); details: about 30 mg, φ8 mm round tooling, 10 kN, held 30 s
# Method: ENERPAC manual tablet press was used for testing. Approximately 30 mg of Form CSI was weighed and then added into the dies of φ8 mm round tooling, compressed at 10 kN and held for 30 s. The punch was weighed and the amount of material sticking to the punch was calculated. The compression was repeated twice and the maximum amount and average amount of material sticking to the punch during the compression were recorded. […] ENERPAC manual tablet press was used for testing. Approximately 30 mg of Form CSII was weighed and then added into the dies of φ8 mm round tooling, compressed at 10 kN and held for 30 s. The punch was weighed and amount of material sticking to the punch was calculated. The compression was repeated twice and the maximum amount and average amount of material sticking to the punch during the compression were recorded. […] ENERPAC manual tablet press was used for testing. Approximately 30 mg of Form CSIV was weighed and then added into the dies of φ8 mm round tooling, compressed at 10 KN and held for 30 s. The punch was weighed and amount of material sticking to the punch was calculated. The compression was repeated twice and the maximum amount and average amount of material sticking to the punch during the compression were recorded.
# [2] = Appearance of powder on sulphuric acid paper
# Description: A certain amount of Form CSI was weighed and put on sulphuric acid paper to observe the appearance The appearance of Form CSI is shown in FIG. 15. […] A certain amount of Form CSII was weighed and put in sulphuric acid paper, and the powder state was observed. […] A certain amount of Form CSIV was weighed and put in sulphuric acid paper, and the powder state was observed.
# [3] = Flowability (compressibility index from bulk and tapped density)
# Method: Compressibility index is usually utilized to evaluate the flowability of powder or granules during the drug product process. Compressibility index test method is as follows: a certain amount of powder was added into a measuring cylinder and bulk volume was recorded. Then the powder was tapped to make it in the tightest state and the tapped volume was recorded. The bulk density (ρ0) and tapped density (ρf) were calculated and compressibility index was calculated according to c=(ρf−ρ0)/ρf.
# [4] = Physical and chemical stability on storage (XRPD for crystalline form, HPLC for purity)
# Method: A certain amount of Form CSI of the present disclosure was stored under different conditions of 25° C./60% RH, 40° C./75% RH, and 60° C./75% RH. Crystalline form and chemical purity were checked by XRPD and HPLC, respectively. Open packaged: Put the sample into a glass vial, cover the vial with aluminum toil, and punch 5-10 holes in the foil. Sealed packaged: Put the sample into a glass vial, cap the vial tightly, and seal the vial in an aluminum foil bag. A certain amount of Form CSII of the present disclosure was stored under different conditions of 25° C./60% RH, 40° C./75% RH, and 60° C./75% RH. Crystalline form and chemical purity were checked by XRPD and HPLC, respectively. A certain amount of Form CSIV of the present disclosure was stored under different conditions of 25° C./60% RH, 40° C./75% RH, and 60° C./75% RH. Crystalline form and chemical purity were checked by XRPD and HPLC, respectively.
# [5] = Hygroscopicity by dynamic vapor sorption (DVS); details: for Weight gain from 0 to 60% RH / Weight gain from 0 to 70% RH: DVS, 25° C.; for Crystalline state after DVS: XRPD before and after DVS test
# Method: Dynamic Vapor Sorption (DVS) was measured via an SMS (Surface Measurement Systems Ltd.) intrinsic DVS instrument. The instrument control software is DVS-Intrinsic control software. Typical Parameters for DVS test are as follows: • Temperature: 25° C. • Gas and flow rate: N2, 200 mL/min • RH range: 0% RH to 95% RH Dynamic vapor sorption (DVS) analyzer was applied to evaluate the hygroscopicity of amorphous with a certain amount of sample. The weight gains at each relative humidity were recorded in a cycle of 0-95% RH-0. […] Dynamic vapor sorption (DVS) analyzer was applied to evaluate hygroscopicity of Form CSI with a certain amount of sample. The weight gains at each relative humidity were recorded in a cycle of 0-95% RH-0. Dynamic vapor sorption (DVS) analyzer was applied to evaluate hygroscopicity of Form CSII with a certain amount of sample. The weight gains at each relative humidity were recorded in a cycle of 50% RH-95% RH-0%-95% RH. Dynamic vapor sorption (DVS) analyzer was applied to evaluate hygroscopicity of Form CSIV and prior art amorphous with certain amounts of samples. The weight gains at each relative humidity were recorded in a cycle of 0-95% RH-0.
# [6] = Particle size distribution (Mastersizer 3000, wet mode); details: after 30 seconds of ultrasonication, Isopar G
# Method: The particle size distribution data in the present disclosure were acquired by an Mastersizer 3000 laser particle size analyzer of Malvern. The test was carried out in wet mode, using a Hydro MV dispersion device, and the dispersant was Isopar G. The parameters are shown in Table 3. A certain amount of Form CSI was added into a glass vial with about a certain volume of Isopar G (containing 0.2% lecithin). The mixture was mixed thoroughly and transferred into the Hydro MV dispersing device. The experiment was started when the obscuration was in appropriate range. The particle size distribution was tested after 30 seconds of ultrasonication.
# [7] = Physical stability upon manual grinding (XRPD); details: ground manually for 5 minutes in a mortar
# Method: Form CSII was grounded manually for 5 minutes in a mortar. […] Form CSIV was grounded manually for 5 minutes in a mortar.
# [8] = Physical stability upon tableting under different pressures (XRPD)
# Description: A certain amount of Form CSII was compressed into tablet under different pressures with suitable tableting die. Crystalline form before and after tableting were checked by XRPD. […] A certain amount of Form CSIV was compressed into tablet under different pressures with suitable tableting die. Crystalline form before and after tableting were checked by XRPD.
# [9] = 25° C./60% RH, open packaged, 6 months
# [10] = 25° C./60% RH, sealed packaged, 6 months
# [11] = 40° C./75% RH, open packaged, 6 months
# [12] = 40° C./75% RH, sealed packaged, 6 months
# [13] = 60° C./75% RH, open packaged, 3 months
# [14] = 60° C./75% RH, sealed packaged, 3 months
# [15] = 25° C./60% RH, open packaged, 3 months
# [16] = 25° C./60% RH, sealed packaged, 3 months
# [17] = 40° C./75% RH, open packaged, 3 months
# [18] = 40° C./75% RH, sealed packaged, 3 months
# [19] = 60° C./75% RH, open packaged, one month
# [20] = 60° C./75% RH, sealed packaged, one month
Average adhesion amount [1],Time for which the form is stable (crystalline state doesn't change) ([4]; 25° C./60% RH),Time for which the form is stable (crystalline state doesn't change) ([4]; 40° C./75% RH),Time for which the form is stable (crystalline state doesn't change) ([4]; 60° C./75% RH),Weight gain from 0 to 60% RH ([5]; 0 to 60% RH),Weight gain from 0 to 70% RH ([5]; 0 to 70% RH),Crystalline state after DVS [5],Crystalline state after grinding [7],"Form after storage [4, 15]","Purity change [4, 15]","Form after storage [4, 16]","Purity change [4, 16]","Form after storage [4, 17]","Purity change [4, 17]","Form after storage [4, 18]","Purity change [4, 18]","Form after storage [4, 19]","Purity change [4, 19]",Solid form after tableting ([8]; Pressure 5 kN),SMILES,Appearance of powder [2],also measured
0.45 mg,at least 6 months,at least 6 months,at least 3 months,0.17%,0.17%,remains unchanged,,,,,,,,,,,,,"O=C(O)CCCc1cc2cc(Cl)ccc2n1S(=O)(=O)c1ccc2ncsc2c1 [Form CSI, 5-Chloro-1-[(6-benzothiazolyl)sulfonyl]-1H-indole-2-butanoic acid]",powdery with uniformly dispersed and has no adhesion phenomenon,"Bulk density [3]: 0.405 g/mL; Tapped density [3]: 0.526 g/mL; Flowability ([3]; class by compressibility index, ICH Q4B Annex 13): Passable (21-25); Form after storage [4, 9]: Form CSI; Purity change [4, 9]: 0.02%; Form after storage [4, 10]: Form CSI; Purity change [4, 10]: 0.03%; Form after storage [4, 11]: Form CSI; Purity change [4, 11]: 0.05%; Form after storage [4, 12]: Form CSI; Purity change [4, 12]: 0.01%; Form after storage [4, 13]: Form CSI; Purity change [4, 13]: 0.08%; Form after storage [4, 14]: Form CSI; Purity change [4, 14]: 0.07%; D10 [6]: 0.725 μm; D50 [6]: 1.89 μm; D90 [6]: 7.15 μm; MV [6]: 4.54 μm"
0.20 mg,at least 3 months,at least 3 months,at least one month,0.21%,0.27%,remains unchanged,remains unchanged,Form CSII,0.09%,Form CSII,0.06%,Form CSII,0.07%,Form CSII,0.01%,Form CSII,0.05%,Form CSII,"O=C(O)CCCc1cc2cc(Cl)ccc2n1S(=O)(=O)c1ccc2ncsc2c1 [Form CSII, 5-Chloro-1-[(6-benzothiazolyl)sulfonyl]-1H-indole-2-butanoic acid]",powdery with uniformly dispersed and has no adhesion phenomenon,Solid form after tableting ([8]; Pressure 10 kN): Form CSII; Solid form after tableting ([8]; Pressure 20 kN): Form CSII
0.05 mg,at least 3 months,at least 3 months,at least one month,0.23%,0.27%,remains unchanged,remains unchanged,Form CSIV,0.02%,Form CSIV,0.04%,Form CSIV,0.00%,Form CSIV,0.03%,Form CSIV,0.04%,Form CSIV,"O=C(O)CCCc1cc2cc(Cl)ccc2n1S(=O)(=O)c1ccc2ncsc2c1 [Form CSIV, 5-Chloro-1-[(6-benzothiazolyl)sulfonyl]-1H-indole-2-butanoic acid]",powdery with uniformly dispersed and has no adhesion phenomenon,"Form after storage [4, 20]: Form CSIV; Purity change [4, 20]: 0.06%; Solid form after tableting ([8]; Pressure 10 kN): Form CSIV; Solid form after tableting ([8]; Pressure 20 kN): Form CSIV"
,,,,0.94%,1.18%,,,,,,,,,,,,,,"O=C(O)CCCc1cc2cc(Cl)ccc2n1S(=O)(=O)c1ccc2ncsc2c1 [amorphous, 5-Chloro-1-[(6-benzothiazolyl)sulfonyl]-1H-indole-2-butanoic acid, reference compound]",,"Weight gain of amorphous relative to that of Form CSI ([5]; 0 to 60% RH): about 6 times; Weight gain of amorphous relative to that of Form CSII ([5]; 0 to 60% RH): about 4 times; Weight gain of amorphous relative to that of Form CSIV ([5]; 0 to 60% RH and 0 to 70% RH): about 4 times; Weight gain of amorphous relative to that of Form CSI ([5]; 0 to 70% RH): ~7 times; Weight gain of amorphous relative to that of Form CSII ([5]; 0 to 70% RH): ~5 times; Weight gain from 0 to 60% RH ([5]; 0 to 60% RH, listed as prior art amorphous): 0.94%; Weight gain from 0 to 70% RH ([5]; 0 to 70% RH, listed as prior art amorphous): 1.18%"
